Our source for the MIC90 values is patent US9630977B2, “Cephalosporin derivatives and pharmaceutical compositions thereof” (Legochem Biosciences, Inc., priority 2011, dated 2017).

The structures appear in SMILES notation. Converted amounts (≈) assume the structure as drawn. Read-outs that look alike come from different tables or passages of the source.

Assay in all cases: In vitro antibacterial activity test (broth microdilution)
Type in all cases: cell-based

The test system of one test is K. pneumoniae β10. Particulars: Klebsiella pneumoniae. The procedure, abridged: (§1)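 Susceptibility of clinical bacterial isolates is measured by CLSI broth microdilution. Final drug concentrations range 0.0626–128 ug/mL in 2.5% (V/V) DMSO; MIC90 recorded as lowest concentration blocking visible growth of 90% of organisms.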
A further test relates to K. pneumoniae β9. Particulars: Klebsiella pneumoniae. A digest of the protocol:
as §1

The subject of a further test is M. catarrhalis 2524. Particulars: Moraxella catarrhalis. The procedure, abridged:
as §1

The next test has as its system A. baumannii 46. The procedure, abridged: as §1
The subject of test [1] is A. calcoaceticus ATCC15473. Particulars: Acinetobacter calcoaceticus. A digest of the protocol:
as §1

The subject of the next test is E. coli β4. Particulars: Escherichia coli. A digest of the protocol: as §1
The next test has as its system K. pneumoniae β13. Particulars: Klebsiella pneumoniae. The procedure, abridged:
as §1

The next test relates to K. pneumoniae β14. Particulars: Klebsiella pneumoniae. A digest of the protocol: as §1
For another test, the system named is P. aeruginosa 6065Y. Particulars: Pseudomonas aeruginosa. A digest of the protocol:
as §1

In a further test the test system is K. pneumoniae β11. Particulars: Klebsiella pneumoniae. The procedure, abridged:
as §1

In another test the test system is E. coli AG100. Particulars: Escherichia coli. A digest of the protocol:
as §1

The next test has as its system K. pneumoniae 2011E. Particulars: Klebsiella pneumoniae, 2011E. The procedure, abridged: as §1
The next test relates to A. baumannii 49. A digest of the protocol:
as §1

The test system of another test is P. aeruginosa 40. The procedure, abridged: as §1
Another test has as its system A. baumannii 52. Particulars: Acinetobacter baumannii. The procedure, abridged: as §1
The next test relates to P. aeruginosa 43. Particulars: Pseudomonas aeruginosa. The procedure, abridged: as §1
A further test deals with P. aeruginosa 37. Particulars: Pseudomonas aeruginosa, 37, P. aeruginosa 37. The procedure, abridged: as §1
In the next test the test system is P. aeruginosa 1912E. Particulars: Pseudomonas aeruginosa, 1912E. The procedure, abridged:
as §1

The subject of a further test is E. cloacae β19. Particulars: Enterobacter cloacae. A digest of the protocol:
as §1

The mark [2] stands for this setting: K. pneumoniae β10, read-out: MIC90.
Setting [3] is: K. pneumoniae β9, read-out: MIC90.
Setting [4] is: M. catarrhalis 2524, read-out: MIC90.
The mark [5] stands for this setting: Acinetobacter baumannii, A. baumannii 46, read-out: MIC90.
Where [6] appears, read: A. calcoaceticus ATCC15473, read-out: MIC90.
The mark [7] stands for this setting: K. pneumoniae β13, read-out: MIC90.
Where [8] appears, read: K. pneumoniae β11, read-out: MIC90.
Setting [9] is: AG100, E. coli AG100, read-out: MIC90.
Where [10] appears, read: K. pneumoniae 2011E, read-out: MIC90.
[11] abbreviates: Acinetobacter baumannii, A. baumannii 49, read-out: MIC90.
[12] abbreviates: Pseudomonas aeruginosa, 40, P. aeruginosa 40, read-out: MIC90.
Setting [13] is: A. baumannii 52, read-out: MIC90.
Where [14] appears, read: P. aeruginosa 43, read-out: MIC90.

By MIC90 is commonly meant the lowest concentration that inhibits either 90% of growth or 90% of the strains tested, depending on the study. Take `C[C@H](O/N=C(\C(=O)N[C@@H]1C(=O)N2C(C(=O)[O-])=C(C[n+]3cnc(N)c(NC(=O)CCNC(=O)c4cc(=O)c(O)cn4O)c3)CSC12)c1nc(N)sc1Cl)C(=O)O` (stereo partly shown) [Compound 20]: the MIC90 was 0.5 µg/mL (≈ 0.608 µM) in the test with K. pneumoniae β10 (setting [2]); 2 µg/mL (≈ 2.43 µM) in the test with K. pneumoniae β9 (setting [3]); 0.5 µg/mL (≈ 0.608 µM) in the test on M. catarrhalis 2524 (setting [4]); 16 µg/mL (≈ 19.5 µM) with A. baumannii 46 (setting [5]); 1 µg/mL (≈ 1.22 µM) in [1] (setting [6]); 8 µg/mL (≈ 9.73 µM) in the test with E. coli β4 (read-out: MIC90). Further, the MIC90 stood at 1 µg/mL (≈ 1.22 µM) in the test with K. pneumoniae β13 (setting [7]); 64 µg/mL (≈ 77.8 µM) with K. pneumoniae β14 (read-out: MIC90); 1 µg/mL (≈ 1.22 µM) in the test with P. aeruginosa 6065Y (read-out: MIC90); 16 µg/mL (≈ 19.5 µM) in the test with K. pneumoniae β11 (setting [8]); 0.25 µg/mL (≈ 0.304 µM) with E. coli AG100 (setting [9]); 8 µg/mL (≈ 9.73 µM) in the test on K. pneumoniae 2011E (setting [10]). In addition, the MIC90 was 32 µg/mL (≈ 38.9 µM) in the test on A. baumannii 49 (setting [11]); 4 µg/mL (≈ 4.87 µM) in the test with P. aeruginosa 40 (setting [12]); 2 µg/mL (≈ 2.43 µM) with A. baumannii 52 (setting [13]); 1 µg/mL (≈ 1.22 µM) in the test on P. aeruginosa 43 (setting [14]); 2 µg/mL (≈ 2.43 µM) in the test on P. aeruginosa 37 (read-out: MIC90); 4 µg/mL (≈ 4.87 µM) with P. aeruginosa 1912E (read-out: MIC90). In the test with E. cloacae β19 (read-out: MIC90), the MIC90 came out at 8 µg/mL (≈ 9.73 µM).

Turning to `C[C@H](O/N=C(\C(=O)N[C@@H]1C(=O)N2C(C(=O)[O-])=C(C[n+]3cnc(NCCN)c(NCCNC(=O)c4cc(=O)c(O)cn4O)c3)CSC12)c1nc(N)sc1Cl)C(=O)O` (stereo partly shown) [Compound 21], the MIC90 in the test on K. pneumoniae β10 was 2 µg/mL (≈ 2.39 µM); with K. pneumoniae β9 it was 2 µg/mL (≈ 2.39 µM); in the test with M. catarrhalis 2524 (2524), 0.125 µg/mL (≈ 0.149 µM); against A. baumannii 46 (Acinetobacter baumannii, 46, A. baumannii 46) it was 16 µg/mL (≈ 19.1 µM); in test [1] (ATCC15473, A. calcoaceticus ATCC15473), 1 µg/mL (≈ 1.19 µM); with E. coli β4 it was 4 µg/mL (≈ 4.78 µM). Further, the MIC90 against K. pneumoniae β13 is 2 µg/mL (≈ 2.39 µM); against K. pneumoniae β14, 16 µg/mL (≈ 19.1 µM); with P. aeruginosa 6065Y (6065Y), 4 µg/mL (≈ 4.78 µM); in the test with K. pneumoniae β11, 8 µg/mL (≈ 9.56 µM); in the test with E. coli AG100 (AG100), 0.5 µg/mL (≈ 0.597 µM); in the test with K. pneumoniae 2011E, 4 µg/mL (≈ 4.78 µM). Moreover, the MIC90 is 8 µg/mL (≈ 9.56 µM) in the test on A. baumannii 49 (Acinetobacter baumannii, 49, A. baumannii 49); 8 µg/mL (≈ 9.56 µM) with P. aeruginosa 40 (Pseudomonas aeruginosa, 40); 2 µg/mL (≈ 2.39 µM) against A. baumannii 52 (52); 2 µg/mL (≈ 2.39 µM) in the test on P. aeruginosa 43 (43); 32 µg/mL (≈ 38.2 µM) with P. aeruginosa 37; 4 µg/mL (≈ 4.78 µM) against P. aeruginosa 1912E. This molecule returned an MIC90 in the test on E. cloacae β19 of 16 µg/mL (≈ 19.1 µM).

With `CC(C)(O/N=C(\C(=O)N[C@@H]1C(=O)N2C(C(=O)[O-])=C(C[n+]3cnc(N)c(NC(=O)c4cc(=O)c(O)cn4O)c3)CSC12)c1nc(N)sc1Cl)C(=O)O` (stereo partly shown) [Compound 22], the MIC90 in the test on K. pneumoniae β10 (setting [2]) was 1 µg/mL (≈ 1.31 µM); with K. pneumoniae β9 (setting [3]), 8 µg/mL (≈ 10.5 µM); in the test on M. catarrhalis 2524 (setting [4]), 0.5 µg/mL (≈ 0.653 µM); with A. baumannii 46 (setting [5]), 128 µg/mL (≈ 167 µM); in test [1] (setting [6]), 0.5 µg/mL (≈ 0.653 µM); with E. coli β4 (read-out: MIC90), 32 µg/mL (≈ 41.8 µM). Further, the MIC90 in the test with K. pneumoniae β13 (setting [7]) is 2 µg/mL (≈ 2.61 µM); in the test on K. pneumoniae β14 (read-out: MIC90) it was 128 µg/mL (≈ 167 µM); in the test with P. aeruginosa 6065Y (read-out: MIC90), 2 µg/mL (≈ 2.61 µM); in the test with K. pneumoniae β11 (setting [8]) it was 64 µg/mL (≈ 83.6 µM); in the test on E. coli AG100 (setting [9]), 2 µg/mL (≈ 2.61 µM); in the test on K. pneumoniae 2011E (setting [10]), 16 µg/mL (≈ 20.9 µM). Besides, the MIC90 with A. baumannii 49 (setting [11]) is 16 µg/mL (≈ 20.9 µM); with P. aeruginosa 40 (setting [12]), 2 µg/mL (≈ 2.61 µM); in the test on A. baumannii 52 (setting [13]), 2 µg/mL (≈ 2.61 µM); in the test with P. aeruginosa 43 (setting [14]) it was 0.5 µg/mL (≈ 0.653 µM); in the test with P. aeruginosa 37 (read-out: MIC90), 1 µg/mL (≈ 1.31 µM); in the test with P. aeruginosa 1912E (read-out: MIC90), 2 µg/mL (≈ 2.61 µM). In the test with E. cloacae β19 (read-out: MIC90), the MIC90 is 32 µg/mL (≈ 41.8 µM).

Take `CC(C)(O/N=C(\C(=O)N[C@@H]1C(=O)N2C(C(=O)[O-])=C(/C=C/C[n+]3cnc(N)c(NCCCCNC(=O)c4cc(=O)c(O)cn4O)c3)CSC12)c1csc(N)n1)C(=O)O` (stereo partly shown) [Compound 23]: the MIC90 in the test on K. pneumoniae β10 (setting [2]) is less than 0.0625 µg/mL; with K. pneumoniae β9 (setting [3]), less than 0.0625 µg/mL; in the test on M. catarrhalis 2524 (setting [4]), 0.25 µg/mL (≈ 0.302 µM); in the test with A. baumannii 46 (setting [5]), 4 µg/mL (≈ 4.83 µM); in [1] (setting [6]), 1 µg/mL (≈ 1.21 µM); with E. coli β4 (read-out: MIC90), less than 0.0625 µg/mL. Moreover, the MIC90 in the test with K. pneumoniae β13 (setting [7]) is less than 0.0625 µg/mL; in the test with K. pneumoniae β14 (read-out: MIC90), 4 µg/mL (≈ 4.83 µM); in the test on P. aeruginosa 6065Y (read-out: MIC90) it was 2 µg/mL (≈ 2.42 µM); with K. pneumoniae β11 (setting [8]), 64 µg/mL (≈ 77.3 µM); in the test with E. coli AG100 (setting [9]), less than 0.0625 µg/mL; in the test on K. pneumoniae 2011E (setting [10]), 1 µg/mL (≈ 1.21 µM). Further, the MIC90 with A. baumannii 49 (setting [11]) is greater than 128 µg/mL; in the test with P. aeruginosa 40 (setting [12]), 0.5 µg/mL (≈ 0.604 µM); in the test with A. baumannii 52 (setting [13]) it was greater than 128 µg/mL; in the test with P. aeruginosa 43 (setting [14]), 1 µg/mL (≈ 1.21 µM); in the test on P. aeruginosa 37 (read-out: MIC90), 0.25 µg/mL (≈ 0.302 µM); with P. aeruginosa 1912E (read-out: MIC90) it was 1 µg/mL (≈ 1.21 µM). For the same molecule, in the test with E. cloacae β19 (read-out: MIC90), the MIC90 amounted to 2 µg/mL (≈ 2.42 µM).
